Test results as given in ChEMBL document CHEMBL1139648, “Designing rapid onset selective serotonin re-uptake inhibitors. Part 1: Structure-activity relationships of substituted (1S,4S)-4-(3,4-dichlorophenyl)-N-methyl-1,2,3,4-tetrahydro-1-naphthaleneamine” (Bioorg Med Chem Lett, 2006).

Key:
[1] = target: Sodium-dependent noradrenaline transporter (Homo sapiens, UniProt P23975); assay: Inhibition of noradrenaline re-uptake at human noradrenaline transporter expressed in HEK293 cells; format: cell-based
[2] = Distribution coefficient of the compound, log D; format: physicochemical; settings: octanol/water
[3] = Dissociation constant, pKa of the compound; format: physicochemical
[4] = Half life in human liver microsome; format: ADME; settings: liver microsomes
[5] = Half life in rat liver microsome; format: ADME; settings: liver microsomes
[6] = Blood clearance in rat in CNS penetration assay at 3 mg/kg, iv or 5 mg/kg, po; format: ADME, organism-based; settings: whole blood
[7] = Volume of distribution in rat at 3 mg/kg, iv or 5 mg/kg, po; format: ADME, organism-based; settings: in vivo, read-out: Vdss
Rattus norvegicus [8] = assay: Unbound volume of distribution in rat at 3 mg/kg, iv or 5 mg/kg, po; format: ADME, organism-based; settings: in vivo
[9] = Half life in rat at 3 mg/kg, iv or 5 mg/kg, po; format: ADME, organism-based; settings: in vivo
[10] = Oral bioavailability in rat at 5 mg/kg, po; format: ADME, organism-based; settings: in vivo
[11] = Tmax in rat at 3 mg/kg, iv or 5 mg/kg, po; format: ADME, organism-based; settings: in vivo
Rattus norvegicus [12] = assay: Unbound volume of distribution in rat at 1 mg/kg, iv or 1 mg/kg, po; format: ADME, organism-based; settings: in vivo
[13] = Volume of distribution in rat at 1 mg/kg, iv or 1 mg/kg, po; format: ADME, organism-based; settings: in vivo, read-out: Vdss
[14] = Half life in rat at 1 mg/kg, iv or 1 mg/kg, po; format: ADME, organism-based; settings: in vivo
[15] = Oral bioavailability in rat at 1 mg/kg, po; format: ADME, organism-based; settings: in vivo
[16] = Tmax in rat at 1 mg/kg, iv or 1 mg/kg, po; format: ADME, organism-based; settings: in vivo

Chain of Sodium-dependent noradrenaline transporter (P23975 whole entry): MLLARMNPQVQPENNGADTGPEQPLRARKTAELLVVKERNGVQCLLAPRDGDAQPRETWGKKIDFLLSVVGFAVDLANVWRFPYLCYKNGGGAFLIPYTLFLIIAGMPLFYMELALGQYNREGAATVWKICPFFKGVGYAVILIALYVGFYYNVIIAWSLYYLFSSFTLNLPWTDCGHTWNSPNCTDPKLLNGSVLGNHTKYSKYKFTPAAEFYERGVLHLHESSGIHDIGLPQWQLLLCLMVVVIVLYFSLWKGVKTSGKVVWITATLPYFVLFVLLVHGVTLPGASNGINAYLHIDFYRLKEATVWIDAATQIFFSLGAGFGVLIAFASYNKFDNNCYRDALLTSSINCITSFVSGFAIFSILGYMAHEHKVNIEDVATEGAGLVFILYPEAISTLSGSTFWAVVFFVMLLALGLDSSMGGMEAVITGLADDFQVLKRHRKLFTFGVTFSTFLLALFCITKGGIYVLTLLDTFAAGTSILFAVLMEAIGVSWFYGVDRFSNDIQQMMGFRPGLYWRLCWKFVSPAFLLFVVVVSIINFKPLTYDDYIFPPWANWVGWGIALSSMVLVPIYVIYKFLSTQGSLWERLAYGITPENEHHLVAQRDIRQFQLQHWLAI

CN[C@H]1CC[C@@H](c2ccc(Cl)c(Cl)c2)c2ccc(-n3cncn3)cc21
IC50 [1]: 0.76 µM

CN[C@H]1CC[C@@H](c2ccc(Cl)c(Cl)c2)c2cc(S(C)(=O)=O)ccc21
IC50 [1]: 4.2 µM

CN[C@H]1CC[C@@H](c2ccc(Cl)c(Cl)c2)c2ccc(S(=O)(=O)N(C)C)cc21
IC50 [1]: 2.7 µM

CN[C@H]1CC[C@H](c2ccc(Cl)c(Cl)c2)c2ccc(S(N)(=O)=O)cc21
IC50 [1]: 0.011 µM

CN[C@H]1CC[C@@H](c2ccc(Cl)c(Cl)c2)c2ccc(CO)cc21
IC50 [1]: 0.98 µM

CN[C@H]1CC[C@@H](c2ccc(Cl)c(Cl)c2)c2ccc(CNS(C)(=O)=O)cc21
IC50 [1]: 0.96 µM

CN[C@H]1CC[C@@H](c2ccc(Cl)c(Cl)c2)c2cccc(C(=O)O)c21
IC50 [1]: 0.88 µM

CN[C@H]1CC[C@@H](c2ccc(Cl)c(Cl)c2)c2ccc([N+](=O)[O-])cc21
IC50 [1]: 2.9 µM

CN[C@H]1CC[C@@H](c2ccc(Cl)c(Cl)c2)c2cc(C(=O)O)ccc21
IC50 [1]: 20.3 µM

CN[C@H]1CC[C@@H](c2ccc(Cl)c(Cl)c2)c2cc(C(N)=O)ccc21
IC50 [1]: 1.1 µM

CN[C@H]1CC[C@@H](c2ccc(Cl)c(Cl)c2)c2ccc(CC(N)=O)cc21
IC50 [1]: 0.92 µM

CN[C@@H]1CC[C@@H](c2ccc(Cl)c(Cl)c2)c2ccc(S(N)(=O)=O)cc21
IC50 [1]: 0.31 µM

CN[C@H]1CC[C@@H](c2ccc(Cl)c(Cl)c2)c2ccc(S(C)(=O)=O)cc21
IC50 [1]: 2.1 µM

CN[C@H]1CC[C@@H](c2ccc(Cl)c(Cl)c2)c2ccc(NS(C)(=O)=O)cc21
IC50 [1]: 0.06 µM

CN[C@H]1CC[C@@H](c2ccc(Cl)c(Cl)c2)c2ccc(S(N)(=O)=O)cc21
logD [2]: 2.3
pKa [3]: 8.4
half-life [4]: > 2 h
half-life [5]: > 2 h
clearance [6]: 60 mL/min/kg
Vd [7]: 19 L/kg
Vdss (Rattus norvegicus [8]): 600 L/kg
half-life [9]: 4 h
bioavailability [10]: 44%
Tmax [11]: 1 h
IC50 [1]: 0.77 µM

CN[C@H]1CC[C@@H](c2ccc(Cl)c(Cl)c2)c2cc(C(N)=O)c(NS(C)(=O)=O)cc21
IC50 [1]: 2.1 µM

CN[C@H]1CC[C@@H](c2ccc(Cl)c(Cl)c2)c2cc(C(=O)N(C)C)ccc21
IC50 [1]: 11.5 µM

CN[C@H]1CC[C@@H](c2ccc(Cl)c(Cl)c2)c2ccc(C[S+](C)[O-])cc21 (some centres not stated)
IC50 [1]: 0.45 µM

CN[C@H]1CC[C@@H](c2ccc(Cl)c(Cl)c2)c2cc(S(N)(=O)=O)ccc21
IC50 [1]: 2.1 µM

CN[C@H]1CC[C@@H](c2ccc(Cl)c(Cl)c2)c2cc([S+](C)[O-])ccc21 (some centres not stated)
IC50 [1]: 1.8 µM

CN[C@H]1CC[C@@H](c2ccc(Cl)c(Cl)c2)c2ccccc21 [SERTRALINE]
Vdu (Rattus norvegicus [12]): 1900 L/kg
Log D [2]: 3.1
pKa [3]: 9.3
half-life [4]: > 2 h
half-life [5]: 0.383 h
Vd [13]: 52 L/kg
half-life [14]: 5 h
bioavailability [15]: 51%
Tmax [16]: 4 h

CN[C@H]1CC[C@@H](c2ccc(Cl)c(Cl)c2)c2cc(C(=O)O)c(NS(C)(=O)=O)cc21
IC50 [1]: 9.1 µM

CNC(=O)c1ccc2c(c1)[C@H](c1ccc(Cl)c(Cl)c1)CC[C@@H]2NC
IC50 [1]: 5 µM

CN[C@H]1CC[C@@H](c2ccc(Cl)c(Cl)c2)c2ccc(CC(=O)O)cc21
IC50 [1]: 9.6 µM

CN[C@H]1CC[C@@H](c2ccc(Cl)c(Cl)c2)c2ccc(C#N)cc21
IC50 [1]: 3.2 µM

CN[C@H]1CC[C@@H](c2ccc(Cl)c(Cl)c2)c2ccc([S+](C)[O-])cc21 (some centres not stated)
IC50 [1]: 2 µM

CN[C@@H]1CC[C@H](c2ccc(Cl)c(Cl)c2)c2ccc(S(N)(=O)=O)cc21
IC50 [1]: 0.31 µM

CN[C@H]1CC[C@@H](c2ccc(Cl)c(Cl)c2)c2ccc(S(=O)(=O)NCCO)cc21
IC50 [1]: 0.54 µM

CN[C@H]1CC[C@@H](c2ccc(Cl)c(Cl)c2)c2ccc(C(N)=O)cc21
logD [2]: 2.3
pKa [3]: 8.5
IC50 [1]: 0.41 µM

CN[C@H]1CC[C@@H](c2ccc(Cl)c(Cl)c2)c2cccc(C(N)=O)c21
IC50 [1]: 1.15 µM

CNC(=O)c1ccc2c(c1)[C@@H](NC)CC[C@H]2c1ccc(Cl)c(Cl)c1
logD [2]: 2.8
pKa [3]: 8.8

CNC(=O)c1cccc2c1[C@@H](NC)CC[C@H]2c1ccc(Cl)c(Cl)c1
IC50 [1]: 1.5 µM

CN[C@H]1CC[C@@H](c2ccc(Cl)c(Cl)c2)c2ccc(-n3ccnn3)cc21
IC50 [1]: 0.65 µM

CN[C@H]1CC[C@@H](c2ccc(Cl)c(Cl)c2)c2ccc(C(=O)OC)cc21
IC50 [1]: 1.25 µM

CN[C@H]1CC[C@@H](c2ccc(Cl)c(Cl)c2)c2ccc(S(=O)(=O)NC)cc21
logD [2]: 2.8
IC50 [1]: 1.25 µM
